Experimental data as given in patent publication US20230391760A1, “HETEROCYCLIC GLP-1 AGONISTS” (Gasherbrum Bio, Inc., priority 2020, published 2023).
pEC50: −log10 of the molar value.

What follows are compounds tested against GLP-1 Receptor (Homo sapiens, UniProt P43220) (assay: GLP-1R agonist cAMP stimulation assay (HEK293/GLP1R/CRE-LUC cells, cAMP dynamic 2 Kit)). Conditions: HEK293/CRE-Luc cell line stably expressing the GLP-1 Receptor, 30 min at 37° C.
Format: cell-based
Procedure, shortened: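 cAMP measured by HTRF competition (d2-labelled cAMP with cryptate antibody, 1 h, room temperature, protected from light). Before that, GLP1R/CRE-Luc HEK293 cells (1000/well) were exposed for 30 min at 37 °C to half-log compound dilutions in DPBS containing IBMX 0.5 mM and BSA 0.1%.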

GLP-1 Receptor, sequence (P43220 24-463, species assumed): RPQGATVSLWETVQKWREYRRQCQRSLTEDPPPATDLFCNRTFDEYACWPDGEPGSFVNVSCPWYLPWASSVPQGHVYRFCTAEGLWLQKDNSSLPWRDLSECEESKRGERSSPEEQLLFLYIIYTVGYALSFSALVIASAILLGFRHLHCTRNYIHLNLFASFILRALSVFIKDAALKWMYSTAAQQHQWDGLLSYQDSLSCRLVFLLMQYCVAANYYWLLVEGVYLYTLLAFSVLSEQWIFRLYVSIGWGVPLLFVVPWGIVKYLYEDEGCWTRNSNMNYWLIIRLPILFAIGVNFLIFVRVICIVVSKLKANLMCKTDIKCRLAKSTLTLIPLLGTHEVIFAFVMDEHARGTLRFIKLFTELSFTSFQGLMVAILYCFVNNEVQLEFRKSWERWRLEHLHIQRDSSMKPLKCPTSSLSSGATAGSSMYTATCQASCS

Structure (SMILES) | pEC50
CC1(c2ccc(Cl)cn2)Oc2cccc(C3CCN(Cc4nc5cc(-c6noc(=O)[nH]6)cnc5n4C[C@@H]4CCO4)CC3)c2O1 (stereo partly drawn) [Compound 332a, 3-[2-({4-[2-(5-chloropyridin-2-yl)-2-methyl-2H-1,3-benzodioxol-4-yl]piperidin-1-yl}methyl)-3-{[(2S)-oxetan-2-yl]methyl}-3H-imidazo[4,5-b]pyridin-6-yl]-4,5-dihydro-1,2,4-oxadiazol-5-one] | 8.80
CS(=O)(=O)Nc1ccc2c(c1)nc(CN1CCC(c3cccc(OCc4ccc(Cl)cc4F)n3)CC1)n2C[C@@H]1CCO1 [Compound 108a, (S)—N-(2-((4-(6-((4-chloro-2-fluorobenzyl)oxy)pyridin-2-yl)piperidin-1-yl)methyl)-1-(oxetan-2-ylmethyl)-1H-benzo[d]imidazol-5-yl)methanesulfonamide] | 6.81
CC1(c2ccc(Cl)cc2F)Oc2cccc(C3CCN(Cc4nc5cc(-c6nnc(C(F)F)[nH]6)cnc5n4C[C@@H]4CCO4)CC3)c2O1 (stereo partly drawn) [Compound 244a, 4-[2-(4-chloro-2-fluorophenyl)-2-methyl-2H-1,3-benzodioxol-4-yl]-1-({6-[5-(difluoromethyl)-4H-1,2,4-triazol-3-yl]-3-{[(2S)-oxetan-2-yl]methyl}-3H-imidazo[4,5-b]pyridin-2-yl}methyl)piperidine] | 9.85
O=C(O)COc1ccc2c(c1)nc(CN1CCC(c3cccc(OCc4ccc(Cl)cc4F)n3)CC1)n2C[C@@H]1CCO1 [Compound 109a, (S)-2-((2-((4-(6-((4-chloro-2-fluorobenzyl)oxy)pyridin-2-yl)piperidin-1-yl)methyl)-1-(oxetan-2-ylmethyl)-1H-benzo[d]imidazol-5-yl)oxy)acetic acid] | 7.88
O=C(Nc1ccc2c(c1)nc(CN1CCC(c3cccc(OCc4ccc(Cl)cc4F)n3)CC1)n2C[C@@H]1CCO1)C1CC1 [Compound 103a, (S)—N-(2-((4-(6-((4-chloro-2-fluorobenzyl)oxy)pyridin-2-yl)piperidin-1-yl)methyl)-1-(oxetan-2-ylmethyl)-1H-benzo[d]imidazol-5-yl)cyclopropanecarboxamide] | 9.51
O=C(CC1CC1)Nc1ccc2c(c1)nc(CN1CCC(c3cccc(OCc4ccc(Cl)cc4F)n3)CC1)n2C[C@@H]1CCO1 [Compound 106a, (S)—N-(2-((4-(6-((4-chloro-2-fluorobenzyl)oxy)pyridin-2-yl)piperidin-1-yl)methyl)-1-(oxetan-2-ylmethyl)-1H-benzo[d]imidazol-5-yl)-2-cyclopropylacetamide] | 8.92
Fc1cc(Cl)ccc1COc1nc(C2CCN(Cc3nc4cc(-c5nnc(C(F)(F)F)[nH]5)ncc4n3C[C@@H]3CCO3)CC2F)ccc1F (stereo partly drawn) [Compound 515a, 2-[(4-chloro-2-fluorophenyl)methoxy]-3-fluoro-6-[(3,4-trans)-3-fluoro-1-[(3-{[(2S)-oxetan-2-yl]methyl}-6-[5-(trifluoromethyl)-4H-1,2,4-triazol-3-yl]-3H-imidazo[4,5-c]pyridin-2-yl)methyl]piperidin-4-yl]pyridine] | 10.24
Cc1cc(C(=O)Nc2ccc3c(c2)nc(CN2CCC(c4cccc(OCc5ccc(Cl)cc5F)n4)CC2)n3C[C@@H]2CCO2)nn1C [Compound 187a, N-{2-[(4-{6-[(4-chloro-2-fluorophenyl)methoxy]pyridin-2-yl}piperidin-1-yl)methyl]-1-{[(2S)-oxetan-2-yl]methyl}-1H-1,3-benzodiazol-5-yl}-1,5-dimethyl-1H-pyrazole-3-carboxamide] | 9.06
Cc1nnc(-c2ccc3c(c2)nc(CN2CCC(c4cccc5c4OC(C)(c4ccc(Cl)cc4F)O5)CC2)n3C[C@@H]2CCO2)[nH]1 (stereo partly drawn) [Compound 243a, 2-({4-[2-(4-chloro-2-fluorophenyl)-2-methyl-2H-1,3-benzodioxol-4-yl]piperidin-1-yl}methyl)-5-(5-methyl-4H-1,2,4-triazol-3-yl)-1-{[(2S)-oxetan-2-yl]methyl}-1H-1,3-benzodiazole] | 10.28
CC1(c2ccc(Cl)cn2)Oc2cccc(C3CCN(Cc4nc5cc(-c6nnc(C7CC7)[nH]6)ccc5n4C[C@@H]4CCO4)CC3)c2O1 (stereo partly drawn) [Compound 270a, 2-({4-[2-(5-chloropyridin-2-yl)-2-methyl-2H-1,3-benzodioxol-4-yl]piperidin-1-yl}methyl)-5-(5-cyclopropyl-4H-1,2,4-triazol-3-yl)-1-{[(2S)-oxetan-2-yl]methyl}-1H-1,3-benzodiazole] | 9.07
O=C(Nc1ccc2c(c1)nc(CN1CCC(c3cccc(OCc4ccc(Cl)cc4F)n3)CC1)n2C[C@@H]1CCO1)N1CCC(O)C1 (stereo partly drawn) [Compound 207a, N-{2-[(4-{6-[(4-chloro-2-fluorophenyl)methoxy]pyridin-2-yl}piperidin-1-yl)methyl]-1-{[(2S)-oxetan-2-yl]methyl}-1H-1,3-benzodiazol-5-yl}-3-hydroxypyrrolidine-1-carboxamide] | 9.41
C[C@]1(c2ccc(Cl)cn2)Oc2cccc(C3CCN(Cc4nc5cc(C(=O)O)nnc5n4C[C@@H]4CCO4)CC3)c2O1 [Compound 464a, 6-({4-[(2S)-2-(5-chloropyridin-2-yl)-2-methyl-2H-1,3-benzodioxol-4-yl]piperidin-1-yl}methyl)-7-{[(2S)-oxetan-2-yl]methyl}-7H-imidazo[4,5-c]pyridazine-3-carboxylic acid] | 9.12
O=C(Nc1ccc2c(c1)nc(CN1CCC(c3cccc(OCc4ccc(Cl)cc4F)n3)CC1)n2C[C@@H]1CCO1)C1CCCOC1 (single isomer, unassigned) [Compound 154b] | 10.13

More lines, now with the values ahead:

pEC50 | Structure (SMILES)
10.35 | C[C@]1(c2ccc(Cl)cn2)Oc2cccc(C3CCN(Cc4nc5cc(-c6nnc(C(F)(F)F)[nH]6)nnc5n4C[C@@H]4CCO4)CC3)c2O1 [Compound 462a, 5-chloro-2-[(2S)-2-methyl-4-{1-[(7-{[(2S)-oxetan-2-yl]methyl}-3-[5-(trifluoromethyl)-4H-1,2,4-triazol-3-yl]-7H-imidazo[4,5-c]pyridazin-6-yl)methyl]piperidin-4-yl}-2H-1,3-benzodioxol-2-yl]pyridine]
7.80 | O=C(O)Cc1ccc2c(c1)nc(CN1CCC(c3cccc(OCc4ccc(Cl)cc4F)n3)CC1)n2C[C@@H]1CCO1 [Compound 110a, (S)-2-(2-((4-(6-((4-chloro-2-fluorobenzyl)oxy)pyridin-2-yl)piperidin-1-yl)methyl)-1-(oxetan-2-ylmethyl)-1H-benzo[d]imidazol-5-yl)acetic acid]
10.07 | Fc1cc(Cl)ccc1COc1nc(N2CCN(Cc3nc4cc(-c5nnc(C(F)(F)F)[nH]5)ncc4n3C[C@@H]3CCO3)CC2)ncc1F [Compound 490a, 4-[(4-chloro-2-fluorophenyl)methoxy]-5-fluoro-2-{4-[(3-{[(2S)-oxetan-2-yl]methyl}-6-[5-(trifluoromethyl)-4H-1,2,4-triazol-3-yl]-3H-imidazo[4,5-c]pyridin-2-yl)methyl]piperazin-1-yl}pyrimidine]
9.29 | CC1(c2ccc(Cl)cc2F)Oc2cccc(C3CCN(Cc4nc5cc(C(=O)O)ccc5n4C[C@@H]4CCO4)CC3)c2O1 (stereo partly drawn) [Compound 161a, 2-((4-(2-(4-chloro-2-fluorophenyl)-2-methylbenzo[d][1,3]dioxol-4-yl)piperidin-1-yl)methyl)-1-(((S)-oxetan-2-yl)methyl)-1H-benzo[d]imidazole-5-carboxylic acid]
9.96 | CC1(c2ccc(Cl)cc2F)Oc2cccc(C3CCN(Cc4nc5cc(-c6nnc(C(F)(F)F)[nH]6)c(F)cc5n4C[C@@H]4CCO4)CC3)c2O1 (stereo partly drawn) [Compound 248a, 2-({4-[2-(4-chloro-2-fluorophenyl)-2-methyl-2H-1,3-benzodioxol-4-yl]piperidin-1-yl}methyl)-6-fluoro-1-{[(2S)-oxetan-2-yl]methyl}-5-[5-(trifluoromethyl)-4H-1,2,4-triazol-3-yl]-1H-1,3-benzodiazole]
8.40 | O=C1NCCN1c1ccc2c(c1)nc(CN1CCC(c3cccc(OCc4ccc(Cl)cc4F)n3)CC1)n2C[C@@H]1CCO1 [Compound 123a, 1-{2-[(4-{6-[(4-chloro-2-fluorophenyl)methoxy]pyridin-2-yl}piperidin-1-yl)methyl]-1-{[(2S)-oxetan-2-yl]methyl}-1H-1,3-benzodiazol-5-yl}imidazolidin-2-one]
9.26 | CC1(c2ccc(Cl)cc2F)Oc2cccc(C3CCN(Cc4nc5cc(-c6noc(=O)[nH]6)ccc5n4C[C@@H]4CCO4)CC3)c2O1 (single isomer, unassigned) [Compound 239c]
10.15 | C[C@]1(c2ccc(Cl)cc2F)Oc2cccc(C3CCN(Cc4nc5cc(-c6noc(=O)[nH]6)cnc5n4C[C@@H]4CCO4)CC3)c2O1 [Compound 262, 3-[2-({4-[(2S)-2-(4-chloro-2-fluorophenyl)-2-methyl-2H-1,3-benzodioxol-4-yl]piperidin-1-yl}methyl)-3-{[(2S)-oxetan-2-yl]methyl}-3H-imidazo[4,5-b]pyridin-6-yl]-4,5-dihydro-1,2,4-oxadiazol-5-one]
10.54 | C[C@]1(c2ccc(Cl)cn2)Oc2cccc(C3CCN(Cc4nc5cc(-c6n[nH]c(C(F)(F)F)n6)cnc5n4C[C@@H]4CCO4)CC3)c2O1 (single isomer, unassigned) [Compound 333b]
10.24 | Fc1cc(Cl)ccc1COc1nc(C2CCN(Cc3nc4cc(-c5nnc(C(F)(F)F)[nH]5)ncc4n3C[C@@H]3CCO3)CC2)ncc1F [Compound 491a, 4-[(4-chloro-2-fluorophenyl)methoxy]-5-fluoro-2-{1-[(3-{[(2S)-oxetan-2-yl]methyl}-6-[5-(trifluoromethyl)-4H-1,2,4-triazol-3-yl]-3H-imidazo[4,5-c]pyridin-2-yl)methyl]piperidin-4-yl}pyrimidine]
10.15 | C[C@H]1CN(c2nc(OCc3ccc(Cl)cc3F)ccc2F)CCN1Cc1nc2cc(-c3nnc(C(F)(F)F)[nH]3)nnc2n1C[C@@H]1CCO1 [Compound 514a, (2S)-4-{6-[(4-chloro-2-fluorophenyl)methoxy]-3-fluoropyridin-2-yl}-2-methyl-1-[(7-{[(2S)-oxetan-2-yl]methyl}-3-[5-(trifluoromethyl)-4H-1,2,4-triazol-3-yl]-7H-imidazo[4,5-c]pyridazin-6-yl)methyl]piperazine]
